The text below walks through data of patent publication US10154974B1, “Use of abscisic acid for the prevention and treatment of malaria” (The Regents of the University of California, priority 2015, dated 2018).

In assay [1] the test system is P. yoelii 17XNL. Description: P. yoelii 17XNL parasitemia in C57Bl/6 and casp1-/- mice. The class given is in vivo. On the procedure: Daily parasitemia of three separate cohorts of mice with and without ABA supplementation. 3 to 5 mice were used per treatment in each infection. Data were analyzed by one-sided, unpaired t-test. # p<0.1, * p<0.05, ** p<0.005.
FIG. 28A-B illustrate that ABA has no effect on parasitemia in caspase-1 knockout mice. […] 4-5 mice were used per treatment group. Data were analyzed by unpaired t-test. # p<0.1 * p<0.05.

Assay [2] is described as follows: Whole liver and spleen weights. Particulars: day 9 post-infection with P. yoelii 17XNL. The class given is in vivo, mice. On the procedure:
FIG. 20A-C illustrate that ABA supplemented mice have reduced hepatosplenomegaly and evidence of improved liver function. Shown are weights of whole liver (FIG. 20A) and spleen (FIG. 20B) from control and ABA-supplemented mice on day 9 post-infection with P. yoelii 17XNL. Also shown are blood urea nitrogen levels (FIG. 20C) in plasma of uninfected and P. yoelii-infected, control and ABA-supplemented mice on day 11 post-infection. Data were analyzed by unpaired t-test.

The subject of the next assay is P. falciparum 3D7. The experiment in a line: P. falciparum gametocyte formation assay. Type of assay: cell-based. The conditions noted are these: 10 nM or 100 nM ABA, 6, 8 or 10 days post culture synchronization. On the procedure:
Studies of the effects of ABA on gametocyte formation were performed with P. falciparum 3D7 engineered to express GFP under the control of alpha tubulin II and Pfs25 promoters. Parasite cultures were synchronized using sorbitol. At 48 hours post-synchronization, 200 μL aliquots of parasite culture and complete RPMI medium were placed in a 96-well flat-bottomed plate and treated with 10 nM ABA, 100 nM ABA, or a diluent control. Media and treatments were refreshed every 48 hours. At 4, 6 and 8 days after the start of treatment, separate aliquots were harvested, media was removed, and replaced with 10% formalin for 1 hour at room temperature. Formalin was removed and replaced with PBS before gametocyte levels were measured by flow cytometry using a FACS Calibur flow cytometer (BD Biosciences) with a GFP filter. Four replicates were carried out, each using a separate parasite culture passage. Relative changes in gametocyte numbers were normalized to controls set at 1 and analyzed by one-sample t-test.

The subject of assay [3] is cytokine and immune-regulators. The experiment in a line: Cytokine and immune-regulator mRNA in spleen and liver. Type of assay: in vivo. The conditions noted are these: CD1 mice, day 4 and 7 post-infection. As to the method: FIG. 23A-B illustrate that ABA supplementation alters cytokine expression in the spleen and liver of infected mice consistent with enhanced IgG production and inflammasome activation. Shown are mRNA levels of cytokine and immune-regulators in the spleen (FIG. 23A) and liver (FIG. 23B) of control and ABA-supplemented CD1 mice on day 4 and 7 post-infection with P. yoelii 17XNL. Data are shown as −Δct, normalized to β-actin and were analyzed by unpaired t-test. # p<0.1 * p<0.05 ** p<0.01.

Assay [4] has as its system nitric oxide synthase (NOS). The experiment in a line: NOS transcript levels in mouse liver and spleen. The conditions noted are these: day 7 of infection. Type of assay: in vivo, mice. As to the method:
For mosquito immune gene expression, 20 midguts were dissected from mosquitoes in each treatment group at 1, 2, 4, 6, 8 and 24 hours post-feeding. Midguts were sonicated and stored in Trizol at −20° C. for up to a week before RNA was extracted according to manufacturer's instructions. cDNA synthesis was carried out using QantiTect Reverse Transcription Kit (Qiagen) and 200 ng of cDNA used per reaction for qRT-PCR with Sybr Green (Applied Biosystems). Fold changes in expression levels were calculated using the comparative threshold cycle method. Data were normalized to the housekeeping gene ribosomal protein S7 and to the control treatment. Primers and cycling conditions for AsNOS, defensin, LRIM, TEP1, and APL1 were as previously described (Hauck E S, et al. Microbes Infect. 2013; 15:775-87). For gene expression analysis of mouse liver and spleen, organs were flash frozen after necropsy and stored at −80° C. before RNA was extracted in Trizol and cDNA synthesized. Real-time PCR was performed using TaqMan probe-based expression assays for mouse NOS2, PPARγ (Mm00440940), and β-actin (Applied Biosystems) with volumes and cycling conditions as previously described (Chau et al., Infect Immun, 2013, 81:3515-26). Samples were analyzed in triplicate with 250 ng of cDNA per reaction to confirm uniformity of amplification. […] All expression data were analyzed by one sample t-test.

The test system of assay [5] is P. yoelii 17XNL. Description: P. yoelii transmission from ABA-supplemented mice to A. stephensi (oocyst counts). Type of assay: in vivo. On the procedure: Anopheles stephensi Liston (Indian wild-type strain) were reared and maintained at 27° C. and 75% humidity. For all feeding experiments, 3-5-day-old female mosquitoes were maintained on water pads for 24 hours and then allowed to bloodfeed for 30 minutes on control or ABA-supplemented P. yoelii 17XNL-infected mice. Cohorts of 50 mosquitoes were allowed to feed on each mouse at 5 days post-infection. Immediately after feeding non-engorged mosquitoes were removed. Ten days post-feeding, midguts were dissected, stained with 0.5% mercurochrome, and oocysts counted by microscopy.

In assay [6] the test system is P. yoelii 17XNL. The experiment in a line: P. yoelii 17XNL infection of CD1 mice given ABA in drinking water (parasitemia, gametocytemia). Type of assay: in vivo. On the procedure:
6-8 week old female CD1 mice (Jackson) were housed four to a cage and provided with unsupplemented water or water supplemented with 2.56 mM (±)-abscisic acid (CAS Registry Number 14375-45-2) obtained from Sigma-Aldrich (Catalog No. A1049). Water and supplemented water were changed daily. […] Mouse weight, water consumption per cage, and parasitemia were monitored daily. Parasitemia was determined from thin blood films stained with Giemsa. Parasitemia was measured as the percentage of infected RBCs divided by total RBCs, while gametocytemia was measured as the proportion of gametocyte-containing RBCs of total infected RBCs. Four mice were used per group in replicated studies. Daily parasitemias and gametocytemias were analyzed by unpaired t-test.

Take `CC1=CC(=O)CC(C)(C)[C@@]1(O)/C=C/C(C)=C\C(=O)O` (racemic) [ABA, (2Z,4E)-5-[(1S)-1-hydroxy-2,6,6-trimethyl-4-oxocyclohex-2-en-1-yl]-3-methylpenta-2,4-dienoic acid]: the parasitemia entry is listed as “significantly reduces” with P. yoelii 17XNL [1] (C57Bl/6 mice, three cohorts); “no effect” in the assay with P. yoelii 17XNL [1] (caspase-1 knockout mice); “reduced” in the assay on P. yoelii 17XNL [6] (CD1 mice, day 4 to day 7 post-infection, relative to controls (Example 1)); “reduced” in the assay with P. yoelii 17XNL [6] (starting on day 3 post-infection, compared to controls (Example 2)). Moreover, the “hepatosplenomegaly (weights of whole liver and spleen)” value in assay [2] was “reduced”. Moreover, in the assay on P. falciparum 3D7, the gametocyte levels result is “no effect”. In addition, in assay [3], the “cytokine expression in the spleen and liver” value is on record as “alters”. The “transcript levels of nitric oxide synthase (NOS)” value in assay [4] is reported as “decreased”. Further, the “mean oocysts per midgut” value in the assay on P. yoelii 17XNL [5] (A. stephensi fed on ABA-supplemented mice on day 5) came to 12. Further, the “infection prevalence of mosquitoes” value with P. yoelii 17XNL [5] (A. stephensi fed on ABA-supplemented mice on day 5, dissected ten days later) worked out at 60.9%. Also, the reduction in prevalence with P. yoelii 17XNL [5] (vs mosquitoes fed on control mice) was found to be 31.4%. In addition, the gametocytemia entry with P. yoelii 17XNL [6] (CD1 mice, day 6 of infection (Example 1)) is reported as “reduced”; in the assay with P. yoelii 17XNL [6] (day 5 post-infection (Example 2)), “reduced”.
